Series [1] relates to Meloidogyne incognita. The series can be described thus: Meloidogyne test (spray treatment). The class given is in vivo. To be noted: concentration 20 ppm; lettuce roots. As for the experimental part: Containers are filled with sand, active compound solution, Meloidogyne incognita egg/larvae suspension and lettuce seeds. The lettuce seeds germinate and the plants develop. On the roots, galls are formed. After the desired period of time, the nematicidal activity is determined by the formation of galls in %. 100% means that no galls were found; 0% means that the number of galls on the treated plants corresponds to that of the untreated control.

Series [2] in a line: logP by LC-MS, method [b], acidic range pH 2.7. It is filed as physicochemical. To be noted: pH 2.7.
Series [3] deals with Spodoptera frugiperda larvae. The series can be described thus: Spodoptera frugiperda test (SPDFR spray application). It is filed as in vivo. To be noted: application rate 500 g/ha; maize plants. As for the experimental part: Spodoptera frugiperda Test (SPDFR Spray Application)
Solvents: 78.0 parts by weight of acetone • • 1.5 parts by weight of dimethylformamide Emulsifier: 0.6 part by weight of alkylaryl polyglycol ether
Maize plants (Zea mays) are watered with an active compound preparation of the desired concentration and infected with Spodoptera frugiperda larvae.
After the desired period of time, the kill in % is determined. 100% means that all larvae have been killed; 0% means that none of the larvae have been killed.

Turning to `CC(=O)Nc1ccc(Nc2ncc(Cl)c(NC3CCC3)n2)cc1Cl` [Compound 118], the “efficacy (nematicidal activity by formation of galls)” value in series [1] is recorded as more than 80%. In addition, in series [2], the log p was 1.78[b].
For `CN(C)C(=O)c1ccc(Nc2ncc(C(F)(F)F)c(NC3CCC3)n2)cc1` [Compound 221], the log p in series [2] is 2.48[b]. In addition, in series [3], the “efficacy (kill in %)” value was not below 80%.

The values are drawn from patent US20110105472A1, “Diaminopyrimidines as crop protection agents” (Bayer CropScience AG, priority 2008, published 2011).
